This is an account of results in patent publication US20150352108A1, “AMINO-PYRIMIDINE COMPOUNDS AS INHIBITORS OF TBK1 AND/OR IKK EPSILON” (Alzheimer's Institute of America, priority 2009, published 2015).

The target in assay [1] is T1, IKKε (Homo sapiens, UniProt Q14164).
T1 construct: His-tag; made in house; host or cells: Sf9 insect cells
T1 sequence (Q14164 1-716): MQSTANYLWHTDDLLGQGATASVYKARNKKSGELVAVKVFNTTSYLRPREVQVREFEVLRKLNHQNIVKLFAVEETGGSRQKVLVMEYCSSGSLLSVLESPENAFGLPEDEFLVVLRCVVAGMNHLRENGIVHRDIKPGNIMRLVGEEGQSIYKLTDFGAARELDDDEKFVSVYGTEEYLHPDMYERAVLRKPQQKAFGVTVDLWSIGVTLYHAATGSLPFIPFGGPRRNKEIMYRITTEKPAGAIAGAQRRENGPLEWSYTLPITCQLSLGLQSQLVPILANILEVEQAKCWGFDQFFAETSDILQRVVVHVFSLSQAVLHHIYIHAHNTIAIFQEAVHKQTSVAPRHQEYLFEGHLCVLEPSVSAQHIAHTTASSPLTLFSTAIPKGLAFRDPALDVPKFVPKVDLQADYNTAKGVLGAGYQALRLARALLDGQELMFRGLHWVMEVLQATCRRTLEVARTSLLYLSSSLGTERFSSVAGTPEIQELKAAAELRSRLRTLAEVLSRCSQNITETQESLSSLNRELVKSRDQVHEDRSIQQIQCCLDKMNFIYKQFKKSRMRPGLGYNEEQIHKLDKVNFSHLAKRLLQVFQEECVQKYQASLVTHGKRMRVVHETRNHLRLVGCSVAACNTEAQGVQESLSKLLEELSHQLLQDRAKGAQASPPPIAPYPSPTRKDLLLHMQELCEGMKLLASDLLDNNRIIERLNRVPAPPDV
The assay is described as follows: In-vitro IKKε kinase assay ([γ33]ATP filter-plate). The format is biochemical. The method, boiled down:
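Phosphorylation of casein or myelin basic protein was counted by P-81 filter capture after 30-45 min reactions stopped with phosphoric acid, with counts normalized to DMSO after background subtraction. ATP was twice Km: 60 μM for TBK1 and 32 μM for IKKε, plus [γ33]ATP. Sf9-expressed His-tag enzymes were used at normal/sensitized levels of 0.1/0.02 μg/ml (TBK1) and 0.1/0.015 μg/ml (IKKε).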

In assay [2] the target is T2, TBK1 (Homo sapiens, UniProt Q9UHD2).
T2 construct: His-tag; made in house; host or cells: Sf9 insect cells
T2 sequence (Q9UHD2 1-729): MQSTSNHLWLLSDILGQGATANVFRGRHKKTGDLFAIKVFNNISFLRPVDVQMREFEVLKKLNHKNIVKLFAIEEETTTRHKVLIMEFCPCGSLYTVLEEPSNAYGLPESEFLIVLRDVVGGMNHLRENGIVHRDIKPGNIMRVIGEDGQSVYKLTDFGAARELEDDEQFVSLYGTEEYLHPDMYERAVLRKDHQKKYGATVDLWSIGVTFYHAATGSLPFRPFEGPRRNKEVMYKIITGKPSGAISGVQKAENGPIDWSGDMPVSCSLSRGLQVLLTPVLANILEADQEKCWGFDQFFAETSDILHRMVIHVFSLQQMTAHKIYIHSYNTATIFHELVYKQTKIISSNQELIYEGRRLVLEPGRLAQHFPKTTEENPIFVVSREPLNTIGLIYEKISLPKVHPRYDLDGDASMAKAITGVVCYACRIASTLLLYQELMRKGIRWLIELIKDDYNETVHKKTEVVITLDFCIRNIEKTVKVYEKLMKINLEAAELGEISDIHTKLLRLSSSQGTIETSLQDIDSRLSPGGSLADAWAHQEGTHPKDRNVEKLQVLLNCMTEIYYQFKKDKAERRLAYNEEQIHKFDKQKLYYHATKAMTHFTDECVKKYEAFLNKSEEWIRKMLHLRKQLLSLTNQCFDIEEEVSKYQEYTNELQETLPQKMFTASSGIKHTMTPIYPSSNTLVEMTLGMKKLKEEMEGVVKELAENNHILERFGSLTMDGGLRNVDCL
Description: In-vitro TBK1 kinase assay ([γ33]ATP filter-plate). It counts as biochemical. The procedure:
IKKε enzyme was produced as a His-tag fusion in Sf9 cells and used at a final concentration of […]. TBK1 enzyme was produced as a His-tag fusion in Sf9 cells and used at a final concentration of 0.1 μg/ml. Kinase reactions were carried out in reaction buffer using myelin basic protein (Millipore, Ballerica, Mass.) or casein (Sigma, St. Louis, Mo.) as substrate at an ATP concentration equal to twice the Km,ATP value for each enzyme, corresponding to 32 μM ATP for IKKε and 60 μM ATP for TBK1, in the presence of 0.3 μCi [γ^33]ATP (PerkinElmer, Waltham, Mass.). Final enzyme concentrations were 0.1 or 0.015 μg/ml (IKKε) and 0.1 or 0.02 μg/ml (TBK1), representing “normal” and “sensitized” assay conditions respectively. Test compounds (or DMSO solvent as a control) were added prior to initiation of the reactions. Reactions were terminated after 30-45 minutes by adding 3% phosphoric acid. Terminated reactions were transferred to P-81 cellulose phosphate filterplates (Whatman, Inc., Piscataway, N.J.) and washed with 1% phosphoric acid on a vacuum apparatus. After air drying, scintillant (PerkinElmer, Waltham, Mass.) was added and the plates were read on a PerkinElmer TopCount NXT instrument. Counts were normalized to DMSO controls after background subtraction.

The mark [3] stands for this setting: text bins, read-out: IC50 for inhibition of the kinase activity of IKKε.
[4] abbreviates: text bins, read-out: IC50 for inhibition of the kinase activity of TBK1.

Like-named read-outs stand apart in the source and are kept apart here. Bounds are passed on as bounds.

`CC(C)C(=O)Nc1ccc(-c2ccnc(Nc3ccc(N4CCN(CCO)CC4)cc3)n2)cc1C#N` [compound 427, N-{2-cyano-4-[2-({4-[4-(2-hydroxyethyl)piperazin-1-yl]phenyl}amino)pyrimidin-4-yl]phenyl}-2-methylpropanamide]: the IC50 in assay [1] (setting [3]) is 5 to 50 nM; in assay [2] (setting [4]), less than 10 nM.

For the compound `COc1cc(C#N)cc(-c2ccnc(Nc3ccc(OC)c(OC)c3)n2)c1` [Example 172, 3-{2-[(3,4-Dimethoxyphenyl)amino]pyrimidin-4-yl}-5-methoxybenzonitrile], the IC50 lay in the range of 5 to 50 nM in assay [1] (setting [3]) and 10 to 100 nM in assay [2] (setting [4]).

As for `CN1CCN(c2ccc(Nc3nccc(-c4ccc(OC5CCNC5)c(C#N)c4)n3)cc2)CC1` (stereo not drawn) [Example 90, 5-(2-{[4-(4-methylpiperazin-1-yl)phenyl]amino}pyrimidin-4-yl)-2-(pyrrolidin-3-yloxy)benzonitrile], the IC50 in assay [1] (setting [3]) is 5 to 50 nM; in assay [2] (setting [4]) it was 10 to 100 nM.

Consider `COc1ccc(-c2ccnc(Nc3ccc(OC4CCN(C)CC4)cc3)n2)cc1C#N` [Example 288, 2-Methoxy-5-[2-({4-[(1-methylpiperidin-4-yl)oxy]phenyl}amino)pyrimidin-4-yl]benzonitrile], for which the results for the IC50 in assay [1] (setting [3]) and in assay [2] (setting [4]) were 5 to 50 nM and less than 10 nM, respectively.

Consider `COc1cc(NC(=O)NC2CCN(C(C)=O)CC2)cc(Nc2nccc(-c3ccc(OC)c(C#N)c3)n2)c1` [compound 344, 1-(1-Acetylpiperidin-4-yl)-3-(3-{[4-(3-cyano-4-methoxyphenyl)pyrimidin-2-yl]amino}-5-methoxyphenyl)urea], for which the half-maximal inhibitory concentration (IC50) in assay [1] (setting [3]) is 5 to 50 nM; in assay [2] (setting [4]), 10 to 100 nM.

As for `COC1CN(C(=O)c2ccc(Nc3nccc(-c4ccc(NC(=O)C5CC5)c(C#N)c4)n3)cc2)C1` [compound 665, N-{2-Cyano-4-[2-({4-[(3-methoxyazetidin-1-yl)carbonyl]phenyl}amino)pyrimidin-4-yl]phenyl} cyclopropane-carboxamide], the half-maximal inhibitory concentration (IC50) in assay [1] (setting [3]) is less than 5 nM; in assay [2] (setting [4]), less than 10 nM.

Turning to `N#Cc1cc(-c2ccnc(Nc3ccc(N4CCOCC4)cc3)n2)ccc1OCC1CCCCO1` (stereo not drawn) [Example 205, 5-(2-{[4-(Morpholin-4-yl)phenyl]amino}pyrimidin-4-yl)-2-(tetrahydro-2H-pyran-2-ylmethoxy) benzonitrile], the IC50 in assay [1] (setting [3]) was in the range of 5 to 50 nM; in assay [2] (setting [4]) it was 10 to 100 nM.

As for `COc1ccc(-c2ccnc(Nc3cc(CN(C)CC(=O)N(C)C)c(OC)c(OC)c3)n2)cc1C#N` [Example 115, N~2~-(5-{[4-(3-Cyano-4-methoxyphenyl)pyrimidin-2-yl]amino}-2,3-dimethoxybenzyl)-N,N,N~2~- trimethylglycinamide], the half-inhibitory concentration (IC50) in assay [1] (setting [3]) was less than 5 nM; in assay [2] (setting [4]), 10 to 100 nM.

Turning to `N#Cc1cccc(-c2ccnc(Nc3ccc4[nH]ncc4c3)n2)c1` [compound 387, 3-[2-(1H-Indazol-5-ylamino)pyrimidin-4-yl]benzonitrile], the IC50 in assay [1] (setting [3]) lay within 5 to 50 nM; in assay [2] (setting [4]) it was 100 to 500 nM.

`COC1CN(Cc2ccc(Nc3nccc(-c4ccc(NC(=O)C5CC5)c(C#N)c4)n3)cc2)C1` [compound 634, N-{2-Cyano-4-[2-({4-[(3-methoxyazetidin-1-yl)methyl]phenyl}amino)pyrimidin-4-yl]phenyl} cyclopropane-carboxamide]: the results for the 50% inhibitory concentration (IC50) in assay [1] (setting [3]) and in assay [2] (setting [4]) were 5 to 50 nM and 10 to 100 nM, respectively.

Take `N#Cc1cc(-c2ccnc(Nc3ccc(N4CCOCC4)cc3)n2)ccc1OC1CCN(C(=O)CO)CC1` [Example 190, 2-{[1-(Hydroxyacetyl)piperidin-4-yl]oxy}-5-(2-{[4-(morpholin-4-yl)phenyl]amino}pyrimidin-4-yl)benzonitrile]: the half-maximal inhibitory concentration (IC50) in assay [1] (Table 3, read-out: IKKε IC50) was 0.4 nM; in assay [1] (setting [3]), less than 5 nM; in assay [2] (Table 3, read-out: TBK1 IC50) it was 0.3 nM; in assay [2] (setting [4]), less than 10 nM.

As to `COc1cc(NC(=O)c2cccnc2)cc(Nc2nccc(-c3ccc(OC)c(C#N)c3)n2)c1` [compound 356, N-(3-{[4-(3-Cyano-4-methoxyphenyl)pyrimidin-2-yl]amino}-5-methoxyphenyl) pyridine-3-carboxamide], the half-maximal inhibitory concentration (IC50) was in the range of 5 to 50 nM in assay [1] (setting [3]) and 10 to 100 nM in assay [2] (setting [4]).

With `COc1ccc(Nc2nccc(-c3ccc(OC)c(C#N)c3)n2)cc1Cl` [compound 327, 5-{2-[(3-Chloro-4-methoxyphenyl)amino]pyrimidin-4-yl}-2-methoxybenzonitrile], the half-maximal inhibitory concentration (IC50) lay in the range of 5 to 50 nM in assay [1] (setting [3]) and 10 to 100 nM in assay [2] (setting [4]).

`N#Cc1cc(-c2ccnc(Nc3ccc(N4CCOCC4)cc3)n2)ccc1OC1CCOC1` (stereo not drawn) [Example 261, 5-(2-{[4-(Morpholin-4-yl)phenyl]amino}pyrimidin-4-yl)-2-(tetrahydrofuran-3-yloxy)benzonitrile]: the IC50 in assay [1] (setting [3]) was less than 5 nM; in assay [2] (setting [4]), less than 10 nM.

For `CS(=O)(=O)NCCOc1ccc(-c2ccnc(Nc3ccc(N4CCOCC4)cc3)n2)cc1C#N` [Example 177, N-{2-[2-cyano-4-(2-{[4-(morpholin-4-yl)phenyl]amino}pyrimidin-4-yl)phenoxy]ethyl} methanesulfonamide], the concentration for half-maximal inhibition (IC50) in assay [1] (setting [3]) lay within 5 to 50 nM; in assay [2] (setting [4]), 10 to 100 nM.

Consider `COc1ccc(-c2ccnc(Nc3cc(CN4CCNC(=O)C4)c(OC)c(OC)c3)n2)cc1C#N` [Example 110, 5-[2-({3,4-Dimethoxy-5-[(3-oxopiperazin-1-yl)methyl]phenyl}amino)pyrimidin-4-yl]-2-methoxybenzonitrile], for which the IC50 was 5 to 50 nM in assay [1] (setting [3]) and less than 10 nM in assay [2] (setting [4]).

For the compound `COc1ccc(-c2ccnc(Nc3ccc(N4CCOCC4)cc3)n2)cc1C#N` [Example 266, 2-Methoxy-5-(2-{[4-(morpholin-4-yl)phenyl]amino}pyrimidin-4-yl)benzonitrile], the 50% inhibitory concentration (IC50) is 5 to 50 nM in assay [1] (setting [3]) and less than 10 nM in assay [2] (setting [4]).

On to `N#Cc1cc(-c2ccnc(Nc3ccc(N4CCOCC4)cc3)n2)ccc1OCCCNC(=O)CO` [Example 181, N-{3-[2-cyano-4-(2-{[4-(morpholin-4-yl)phenyl]amino}pyrimidin-4-yl)phenoxy]propyl}-2-hydroxyacetamide], for which the IC50 in assay [1] (setting [3]) was less than 5 nM; in assay [2] (setting [4]) it was less than 10 nM.

Consider `CN(C)CC(=O)Nc1ccc(Nc2nccc(-c3cccc(C#N)c3)n2)cc1` [Example 183], for which the IC50 in assay [1] (setting [3]) fell in the range of 50 to 500 nM; in assay [2] (setting [4]), 10 to 100 nM.

Consider `COc1ccc(Nc2nc(-c3cccc(C#N)c3)c3nc[nH]c3n2)cc1OC` [compound 390, 3-{2-[(3,4-Dimethoxyphenyl)amino]-3H-purin-6-yl}benzonitrile], for which the figures for the half-maximal inhibitory concentration (IC50) in assay [1] (setting [3]) and in assay [2] (setting [4]) were 50 to 500 nM and 100 to 500 nM, respectively.
